The source of these data is patent US20260199309A1, “COMPOUNDS FOR THE TREATMENT OF CENTRA NERVOUS SYSTEM DISORDERS” (Autifony Therapeutics Limited, priority 2022, published 2026).

Structures are written as SMILES.

One experiment addresses CYP2C9 (Homo sapiens, UniProt P11712). Kind of experiment: CYP450 inhibition, pro-fluorescent probe substrate (2C9/FCA). It counts as in vitro ADME. The following applies: recombinant human CYP450, substrate FCA; top concentration 5.00E-05.
Experiment [1] deals with T1, CYP3A4 (Homo sapiens, UniProt P08684).
T1 construct: purchased
T1 sequence (P08684 whole entry): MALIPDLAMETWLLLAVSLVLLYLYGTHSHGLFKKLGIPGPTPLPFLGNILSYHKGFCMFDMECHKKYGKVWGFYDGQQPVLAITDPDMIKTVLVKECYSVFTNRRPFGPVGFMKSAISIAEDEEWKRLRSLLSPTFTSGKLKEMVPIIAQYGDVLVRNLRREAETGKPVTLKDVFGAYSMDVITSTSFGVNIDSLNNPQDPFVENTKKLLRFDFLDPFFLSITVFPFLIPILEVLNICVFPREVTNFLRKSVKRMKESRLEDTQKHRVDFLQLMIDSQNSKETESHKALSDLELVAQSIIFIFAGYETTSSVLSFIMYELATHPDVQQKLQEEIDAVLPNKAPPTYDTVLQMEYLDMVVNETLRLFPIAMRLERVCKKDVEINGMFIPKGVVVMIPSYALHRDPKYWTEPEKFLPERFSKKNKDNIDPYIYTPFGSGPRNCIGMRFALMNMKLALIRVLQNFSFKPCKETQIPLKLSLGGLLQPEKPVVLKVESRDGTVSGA
Description: CYP450 inhibition, Vivid Baculosomes (3A4/DBOMF). The experiment is classed as in vitro ADME. The following applies: substrate DBOMF, top concentration 5.00E-05, read-out: CYP3A4DBOMF. The source says: The method uses recombinant human CYP450 to metabolize pro-fluorescent probe substrates to fluorescent products. IC50 values for the effect of test compounds on the metabolism of these probe substrates provides a measure of the potency of inhibition of individual CYP450 isoforms.
The described assays measure in vitro inhibitory effects (pIC50) of compounds at the human P450 isoforms (1A2, 2C8, 2C9, 2C19, 2D6, 3A4) expressed in recombinant microsomes. Pro-fluorescent probe substrates are metabolized to fluorescent products by the enzymes.
Fluorescence is measured in kinetic mode (1 read/min for 10 min) and the fluorescence rate is calculated. Data are normalized to controls: DMSO represents 0% effect (i.e. no inhibition), while 10 μM Miconazole is set to 100% effect (i.e. complete inhibition).
Inhibition of the fluorescent signal determined by P450 […] indicates antagonist activity of the compound and allows for the calculation of the compound plC50.
CRCs of compounds are run on two different test occasions (n=2) by preparing serial dilutions from the same compound stock solution. Details of the solutions are outlined in Table 6:
Test compound serial dilutions 1 to 3 were performed from a 10 mM stock solution in DMSO by Biomek FX to generate 10 point CRC. 100% DMSO was used for assay low controls. 10 mM (2 mM for 3A4/DBOMF, 2C8/DBOMF assay only) miconazole solution in DMSO was used as assay high controls. The final concentrations of the 10 point CRCs of test compounds in the assay plate were 5.00E-05; 1.67E-05; 5.56E-06; 1.85E-06; 6.17E-07; 2.06E-07; 6.86E-08; 2.29E-08; 7.62E-09 and 2.54E-09, respectively.
The CYP3A4 and CYP2C8 were assayed using the Vivid CYP3A4 Baculosomes, CYP2C8 Baculosomes and Vivid DBOMF Substrate. […]
10 μl/well from compound plate was added and incubated for 10 min at 37° C. on a plate shaker. […] The plate was transferred into the fluorescent plate reader (EnVision, Wallac) immediately within 2 min and monitor fluorescence every minute for 10 (Excitation 485, Emission 535 and Mirror 505 FITC). […]
The inhibition effect was expressed as percentage. […]

In the next experiment the target is CYP2C19 (Homo sapiens, UniProt P33261). Description: CYP450 inhibition, pro-fluorescent probe substrate (2C19/BMC). The experiment is classed as in vitro ADME. The following applies: recombinant human CYP450, substrate BMC; top concentration 5.00E-05.
Sequence of CYP2C19 (P33261 whole entry): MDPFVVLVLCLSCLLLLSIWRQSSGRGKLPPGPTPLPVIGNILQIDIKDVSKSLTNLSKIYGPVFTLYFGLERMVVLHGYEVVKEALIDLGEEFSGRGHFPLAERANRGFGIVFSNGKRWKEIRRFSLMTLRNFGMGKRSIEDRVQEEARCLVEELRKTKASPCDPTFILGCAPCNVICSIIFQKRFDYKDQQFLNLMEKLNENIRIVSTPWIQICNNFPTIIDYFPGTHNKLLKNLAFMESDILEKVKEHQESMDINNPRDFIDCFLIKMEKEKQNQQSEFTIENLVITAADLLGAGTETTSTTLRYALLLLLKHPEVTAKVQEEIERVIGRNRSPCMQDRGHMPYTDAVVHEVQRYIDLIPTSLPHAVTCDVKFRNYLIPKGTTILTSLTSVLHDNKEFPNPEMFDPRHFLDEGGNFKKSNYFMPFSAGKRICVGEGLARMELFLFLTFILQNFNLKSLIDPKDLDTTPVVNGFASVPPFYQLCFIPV
For experiment [2], the target named is T2, human Kv3.1 channels (hKv3.1) (Homo sapiens, UniProt P48547).
T2 construct: expressed in transfected cells
T2 sequence (P48547 1-511): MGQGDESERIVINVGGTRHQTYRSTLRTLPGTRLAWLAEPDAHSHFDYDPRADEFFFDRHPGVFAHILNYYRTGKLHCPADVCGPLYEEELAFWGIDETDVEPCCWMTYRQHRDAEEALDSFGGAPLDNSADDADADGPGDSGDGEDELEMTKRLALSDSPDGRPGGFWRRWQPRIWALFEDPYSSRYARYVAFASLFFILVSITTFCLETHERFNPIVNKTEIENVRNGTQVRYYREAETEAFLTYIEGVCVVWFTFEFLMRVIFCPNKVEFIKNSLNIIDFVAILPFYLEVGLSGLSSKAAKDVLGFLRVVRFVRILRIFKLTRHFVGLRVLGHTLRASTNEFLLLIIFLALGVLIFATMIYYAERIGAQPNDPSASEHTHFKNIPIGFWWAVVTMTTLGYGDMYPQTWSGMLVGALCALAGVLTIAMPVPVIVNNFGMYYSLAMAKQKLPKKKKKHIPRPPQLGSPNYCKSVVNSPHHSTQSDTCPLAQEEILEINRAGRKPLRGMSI
Kind of experiment: Kv3.1 channel modulation, IonWorks Quattro planar array electrophysiology. It counts as cell-based. The following applies: HEK-293 cells expressing human Kv3.1; for EC50: read-out: Kv3.1 pEC50 (converted); for Kv3.1 max R %: normalised to maximum effect of 50 microM reference compound.

Another experiment addresses CYP1A2 (Homo sapiens, UniProt P05177). Kind of experiment: CYP450 inhibition, pro-fluorescent probe substrate (1A2/ER).
Experiment [3] concerns the target T1, CYP3A4. Kind of experiment: CYP450 inhibition, pro-fluorescent probe substrate (3A4/7BQ). The experiment is classed as in vitro ADME. The following applies: recombinant human CYP450, substrate 7-BQ; top concentration 5.00E-05; read-out: CYP3A47BQ.
In another experiment the target is CYP2D6 (Homo sapiens, UniProt P10635). Kind of experiment: CYP450 inhibition, pro-fluorescent probe substrate (2D6/MMMC). It counts as in vitro ADME. The following applies: recombinant human CYP450, substrate MMMC; top concentration 5.00E-05.
Sequence of CYP2D6 (P10635 whole entry): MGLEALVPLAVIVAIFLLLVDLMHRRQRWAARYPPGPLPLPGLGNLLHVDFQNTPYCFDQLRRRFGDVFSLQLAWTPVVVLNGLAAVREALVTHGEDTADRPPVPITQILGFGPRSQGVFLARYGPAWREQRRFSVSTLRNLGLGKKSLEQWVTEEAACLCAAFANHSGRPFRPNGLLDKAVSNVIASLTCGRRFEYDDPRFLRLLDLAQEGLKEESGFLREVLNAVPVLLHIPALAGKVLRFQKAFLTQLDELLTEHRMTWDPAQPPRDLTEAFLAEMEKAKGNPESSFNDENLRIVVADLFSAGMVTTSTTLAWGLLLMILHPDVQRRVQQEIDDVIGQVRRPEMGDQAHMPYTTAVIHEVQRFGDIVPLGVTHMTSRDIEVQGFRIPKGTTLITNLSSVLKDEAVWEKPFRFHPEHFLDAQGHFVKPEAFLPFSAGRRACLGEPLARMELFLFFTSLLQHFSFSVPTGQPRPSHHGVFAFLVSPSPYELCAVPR
Where [4] appears, read: currents at −15 mV voltage step, normalised to 50 microM reference compound and vehicle.

Sequence of CYP1A2 (P05177 whole entry): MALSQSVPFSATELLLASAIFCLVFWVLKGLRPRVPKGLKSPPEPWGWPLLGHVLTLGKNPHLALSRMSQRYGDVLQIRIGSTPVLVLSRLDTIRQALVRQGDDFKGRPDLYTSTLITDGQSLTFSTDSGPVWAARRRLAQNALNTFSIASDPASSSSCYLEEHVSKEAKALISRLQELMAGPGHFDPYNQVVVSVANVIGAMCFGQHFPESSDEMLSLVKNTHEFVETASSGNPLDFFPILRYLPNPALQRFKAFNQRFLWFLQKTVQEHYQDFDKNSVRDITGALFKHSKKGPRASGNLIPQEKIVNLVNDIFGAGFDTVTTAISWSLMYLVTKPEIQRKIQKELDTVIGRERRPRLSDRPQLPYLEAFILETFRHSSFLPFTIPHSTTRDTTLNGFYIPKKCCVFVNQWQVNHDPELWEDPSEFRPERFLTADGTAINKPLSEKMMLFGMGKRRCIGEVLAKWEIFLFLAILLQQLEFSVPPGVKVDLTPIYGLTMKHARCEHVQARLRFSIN
Sequence of CYP2C9 (P11712 whole entry): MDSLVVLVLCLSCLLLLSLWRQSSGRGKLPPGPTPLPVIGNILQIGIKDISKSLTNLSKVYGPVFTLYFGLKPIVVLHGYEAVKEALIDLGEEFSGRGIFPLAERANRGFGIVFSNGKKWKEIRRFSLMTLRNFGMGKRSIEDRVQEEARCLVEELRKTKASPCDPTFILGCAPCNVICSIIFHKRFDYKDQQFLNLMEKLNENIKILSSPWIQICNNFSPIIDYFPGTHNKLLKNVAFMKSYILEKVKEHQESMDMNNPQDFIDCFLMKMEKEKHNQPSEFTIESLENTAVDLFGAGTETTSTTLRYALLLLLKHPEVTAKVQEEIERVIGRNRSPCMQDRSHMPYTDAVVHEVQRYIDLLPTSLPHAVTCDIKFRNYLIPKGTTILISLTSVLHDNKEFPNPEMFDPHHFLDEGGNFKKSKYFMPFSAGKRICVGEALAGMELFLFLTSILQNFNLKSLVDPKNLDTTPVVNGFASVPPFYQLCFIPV

For `Cc1ccc(Oc2ccc(N3C(=O)NC(C)(C)C3=O)c(N)n2)c2c1OCC21CC1` [Example 1, 3-[2-amino-6-(7-methylspiro[2H-benzofuran-3,1′-cyclopropane]-4-yl)oxy-3-pyridyl]-5,5-dimethyl-imidazolidine-2,4-dione], the IC50 is 8.6 µM on CYP2C9; > 50 µM on CYP3A4 [1]; > 50 µM on CYP2C19; > 50 µM on CYP1A2; > 50 µM at CYP3A4 [3]; > 50 µM at CYP2D6. Moreover, in experiment [2] (setting [4]), the “Kv3.1 pEC50” value amounted to 6.6. Moreover, the EC50 in experiment [2] (setting [4]) is 251 nM. Besides, the “Kv3.1 max R %” value in experiment [2] was found to be 183%.
`COc1nc(Oc2ccc(C)c3c2C2(CC2)CO3)ccc1N1C(=O)NC(C)(C)C1=O` [Reference Example 2, reference compound]: the IC50 was 0.1 µM at CYP2C9; 10.2 µM at CYP3A4 [1]; 1.1 µM on CYP2C19; > 50 µM against CYP1A2; > 50 µM at CYP3A4 [3]; > 50 µM on CYP2D6. In experiment [2] (setting [4]), the EC50 is 1000 nM.
With `CC1(C)NC(=O)N(c2ccc(Oc3cccc(OC(F)(F)F)c3)nc2N)C1=O` [Example 9, 3-[2-amino-6-[3-(trifluoromethoxy)phenoxy]-3-pyridyl]-5,5-dimethyl-imidazolidine-2,4-dione], the IC50 on CYP2C9 was > 50 µM; on CYP3A4 [1] it was > 50 µM; on CYP2C19 it was 21 µM; against CYP1A2, > 50 µM; at CYP3A4 [3], > 50 µM; on CYP2D6 it was > 50 µM. For the same molecule, in experiment [2] (setting [4]), the EC50 was 2510 nM. Also, in experiment [2], the “Kv3.1 max R %” value is recorded as 118%.
